From ChEMBL document CHEMBL5385856, “Novel 1,4,5,6-tetrahydrocyclopenta[d]imidazole-5-carboxamide-based JNK3 inhibitors: Design, synthesis, molecular docking, and therapeutic potential in neurodegenerative diseases” (Eur J Med Chem, 2023)
pIC50: −log10 of the molar value. Activity calls are given as the source filed them. The rule behind the calls is not given here.

What was measured:
[1] = molecular target: T1, Mitogen-activated protein kinase 10 (Homo sapiens, UniProt P53779); assay: Inhibition of JNK3 (unknown origin) using ATF2 as substrate incubated for 40 mins in presence of [gamma33P]ATP by scintillation counting analysis
Cortical neurone = assay: cells; details: Rattus norvegicus, 120 h, read-out: Activity
[2] = molecular target: T2, Mitogen-activated protein kinase 9 (Homo sapiens, UniProt P45984); assay: Inhibition of JNK2 (unknown origin) incubated for 20 mins in presence of 33P-ATP
Target sequence in this assay (P45984 whole entry): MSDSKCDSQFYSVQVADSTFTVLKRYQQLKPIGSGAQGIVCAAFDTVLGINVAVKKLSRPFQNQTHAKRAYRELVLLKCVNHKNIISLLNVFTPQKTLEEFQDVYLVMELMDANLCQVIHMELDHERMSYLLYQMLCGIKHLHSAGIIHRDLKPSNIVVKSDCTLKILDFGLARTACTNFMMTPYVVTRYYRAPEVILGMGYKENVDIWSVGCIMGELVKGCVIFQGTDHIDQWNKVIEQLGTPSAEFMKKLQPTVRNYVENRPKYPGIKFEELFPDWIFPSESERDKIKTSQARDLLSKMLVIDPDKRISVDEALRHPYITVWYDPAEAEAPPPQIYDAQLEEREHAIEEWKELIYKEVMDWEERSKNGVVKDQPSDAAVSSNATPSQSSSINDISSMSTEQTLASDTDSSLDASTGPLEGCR

[3] = molecular target: T3, Mitogen-activated protein kinase 8 (Homo sapiens, UniProt P45983); assay: Inhibition of JNK1 (unknown origin) incubated for 20 mins in presence of 33P-ATP
[4] = molecular target: Glycogen synthase kinase-3 beta (Homo sapiens, UniProt P49841); assay: Inhibition of GSK3beta (unknown origin) incubated for 20 mins in presence of 33P-ATP
[5] = molecular target: T4, Mitogen-activated protein kinase 14 (Homo sapiens, UniProt Q16539); assay: Inhibition of p38alpha (unknown origin) incubated for 20 mins in presence of 33P-ATP
[6] = molecular target: T1, Mitogen-activated protein kinase 10; assay: Inhibition of JNK3 (unknown origin) at 1 uM relative to control
[7] = molecular target: T3, Mitogen-activated protein kinase 8; assay: Inhibition of JNK1 (unknown origin) at 1 uM relative to control
[8] = molecular target: T2, Mitogen-activated protein kinase 9; assay: Inhibition of JNK2 (unknown origin) at 1 uM relative to control
Target sequence in this assay (P45984 whole entry, looked up): as the sequence (P45984 whole entry) above

[9] = molecular target: T4, Mitogen-activated protein kinase 14; assay: Inhibition of p38alpha (unknown origin) at 1 uM relative to control
[10] = Selectivity ratio of IC50 for inhibition of JNK1 (unknown origin) to IC50 for inhibition of JNK3 (unknown origin)
[11] = molecular target: Mitogen-activated protein kinase 10 (Rattus norvegicus) (UniProt P49187); assay: Inhibition of JNK3 in primary rat cortex neuron cells assessed as reduction in Abeta1-42 induced c-Jun phosphorylation by Western blotting analysis; format: cell-based; details: Primary cortical neuron
[12] = molecular target: Mitogen-activated protein kinase 10 (Rattus norvegicus) (UniProt P49187); assay: Inhibition of JNK3 in primary rat cortex neuron cells assessed as reduction in Abeta1-42 induced APP phosphorylation by Western blotting analysis; format: cell-based; details: Primary cortical neuron

T3 sequence (P45983 whole entry): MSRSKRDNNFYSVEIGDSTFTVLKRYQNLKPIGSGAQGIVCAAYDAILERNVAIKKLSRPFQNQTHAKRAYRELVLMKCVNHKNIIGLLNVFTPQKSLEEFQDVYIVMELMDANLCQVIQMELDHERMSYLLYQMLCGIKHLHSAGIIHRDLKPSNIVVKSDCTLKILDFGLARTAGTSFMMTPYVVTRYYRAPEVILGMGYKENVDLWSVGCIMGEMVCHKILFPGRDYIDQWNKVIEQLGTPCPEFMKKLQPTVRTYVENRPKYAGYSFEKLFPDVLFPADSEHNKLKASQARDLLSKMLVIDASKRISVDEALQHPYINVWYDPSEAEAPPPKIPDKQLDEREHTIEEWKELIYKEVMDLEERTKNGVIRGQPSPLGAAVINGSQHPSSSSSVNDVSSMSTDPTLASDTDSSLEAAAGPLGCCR
Sequence of Glycogen synthase kinase-3 beta (P49841 whole entry): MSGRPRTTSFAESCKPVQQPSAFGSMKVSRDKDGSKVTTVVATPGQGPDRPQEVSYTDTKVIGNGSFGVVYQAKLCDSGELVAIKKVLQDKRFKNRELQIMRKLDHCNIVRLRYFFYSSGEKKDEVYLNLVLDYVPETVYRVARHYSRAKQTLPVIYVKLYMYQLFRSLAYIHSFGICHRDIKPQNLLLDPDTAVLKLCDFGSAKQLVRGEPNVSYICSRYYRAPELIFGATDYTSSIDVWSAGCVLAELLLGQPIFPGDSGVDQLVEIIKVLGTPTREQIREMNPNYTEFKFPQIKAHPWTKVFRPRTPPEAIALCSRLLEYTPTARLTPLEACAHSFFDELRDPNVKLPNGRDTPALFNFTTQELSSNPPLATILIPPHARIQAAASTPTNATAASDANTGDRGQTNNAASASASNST
T4 sequence (Q16539 whole entry): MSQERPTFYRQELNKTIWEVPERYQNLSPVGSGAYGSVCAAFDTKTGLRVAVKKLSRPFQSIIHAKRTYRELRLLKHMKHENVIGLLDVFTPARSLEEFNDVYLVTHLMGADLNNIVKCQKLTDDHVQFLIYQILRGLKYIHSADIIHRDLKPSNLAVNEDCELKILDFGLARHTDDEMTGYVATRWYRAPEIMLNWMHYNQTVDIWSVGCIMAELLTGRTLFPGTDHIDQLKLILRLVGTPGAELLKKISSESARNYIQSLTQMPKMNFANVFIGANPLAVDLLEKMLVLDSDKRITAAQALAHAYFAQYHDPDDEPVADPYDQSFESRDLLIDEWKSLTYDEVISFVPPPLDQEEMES
T1 sequence (P53779 whole entry): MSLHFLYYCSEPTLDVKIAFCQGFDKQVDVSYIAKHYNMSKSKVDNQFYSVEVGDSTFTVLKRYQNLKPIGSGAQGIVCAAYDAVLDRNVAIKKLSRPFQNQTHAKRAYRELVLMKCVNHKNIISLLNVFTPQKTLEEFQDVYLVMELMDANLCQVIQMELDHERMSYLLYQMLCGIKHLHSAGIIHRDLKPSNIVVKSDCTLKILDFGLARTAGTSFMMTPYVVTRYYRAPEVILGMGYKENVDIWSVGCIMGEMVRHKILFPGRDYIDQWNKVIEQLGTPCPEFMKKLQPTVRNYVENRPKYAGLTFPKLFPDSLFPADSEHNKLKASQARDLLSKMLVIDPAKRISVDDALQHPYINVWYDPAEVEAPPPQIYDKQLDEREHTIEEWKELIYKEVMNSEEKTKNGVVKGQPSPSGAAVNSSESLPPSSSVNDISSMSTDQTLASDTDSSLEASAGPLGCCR
Sequence of Mitogen-activated protein kinase 10 (Rattus norvegicus) (P49187 whole entry): as the sequence (P53779 whole entry) above, with Q27H, Y32S, I33V, A34V counted along it

Structure (SMILES) | pIC50 [1] | further results
NC(=O)C1Cc2nc(-c3ccc4c(c3)CCO4)n(-c3ccnc(N[C@H]4CCN(C(=O)C5CC5)C4)n3)c2C1 (stereo not given in full) | 7.06 | –
CNC(=O)C1Cc2nc(-c3ccc(Cl)c(Cl)c3)n(-c3ccnc(N[C@@H]4CCN(C(=O)C5CC5)C4)n3)c2C1 (stereo not given in full) | 8.03 | –
CCOC(=O)C1Cc2nc(-c3ccc4c(c3)CCO4)n(-c3ccnc(N[C@@H]4CCN(C(=O)C5CC5)C4)n3)c2C1 (stereo not given in full) | 7.67 | –
NC(=O)C1Cc2nc(-c3ccc4c(c3)OCO4)n(-c3ccnc(N[C@H]4CCN(C(=O)C5CC5)C4)n3)c2C1 (stereo not given in full) | 6.87 | –
NC(=O)C1Cc2nc(-c3ccc(F)c(C(F)(F)F)c3)n(-c3ccnc(N[C@@H]4CCCN(C(=O)C5CC5)C4)n3)c2C1 (stereo not given in full) | 6.98 | –
CNC(=O)C1Cc2nc(-c3ccc(Cl)c(Cl)c3)n(-c3ccnc(N[C@H]4CCN(C(=O)C5CC5)C4)n3)c2C1 (stereo not given in full) | 7.99 | –
CCOC(=O)C1Cc2nc(-c3ccc(F)c(C(F)(F)F)c3)n(-c3ccnc(N[C@@H]4CCCN(C(=O)C5CC5)C4)n3)c2C1 (stereo not given in full) | 7.18 | –
CCOC(=O)C1Cc2nc(-c3ccc4ccccc4c3)n(-c3ccnc(N[C@@H]4CCN(C(=O)C5CC5)C4)n3)c2C1 (stereo not given in full) | 8.17 | –
NC(=O)C1Cc2nc(-c3ccc4c(c3)OCO4)n(-c3ccnc(N[C@H]4CCCN(C(=O)C5CC5)C4)n3)c2C1 (stereo not given in full) | 8.00 | viability at 10 µM (Cortical neurone): 55.1%
CNC(=O)C1Cc2nc(-c3ccc(Cl)c(Cl)c3)n(-c3ccnc(N[C@@H]4CCCN(C(=O)C5CC5)C4)n3)c2C1 (stereo not given in full) | 8.32 | –
CCOC(=O)C1Cc2nc(-c3ccc(F)c(C(F)(F)F)c3)n(-c3ccnc(N[C@H]4CCN(C(=O)C5CC5)C4)n3)c2C1 (stereo not given in full) | 6.34 | –
CCOC(=O)C1Cc2nc(-c3ccc4c(c3)CCO4)n(-c3ccnc(N[C@H]4CCN(C(=O)C5CC5)C4)n3)c2C1 (stereo not given in full) | 6.80 | –
CCOC(=O)C1Cc2nc(-c3ccc(Cl)c(Cl)c3)n(-c3ccnc(N[C@H]4CCN(C(=O)C5CC5)C4)n3)c2C1 (stereo not given in full) | 7.55 | –
NC(=O)C1Cc2nc(-c3ccc4c(c3)CCO4)n(-c3ccnc(N[C@@H]4CCCN(C(=O)C5CC5)C4)n3)c2C1 (stereo not given in full) | 8.05 | –
NC(=O)C1Cc2nc(-c3ccc(Cl)c(Cl)c3)n(-c3ccnc(N[C@@H]4CCCN(C(=O)C5CC5)C4)n3)c2C1 (stereo not given in full) | 9.14 | pIC50 [2]: 7.78; pIC50 [3]: 6.80; pIC50 [4]: 6.33; pIC50 [5]: 7.15; inhibition [6]: 100%; inhibition [7]: 80%; inhibition [8]: 80%; inhibition [9]: 80%
CCOC(=O)C1Cc2nc(-c3ccc4ccccc4c3)n(-c3ccnc(N[C@@H]4CCCN(C(=O)C5CC5)C4)n3)c2C1 (stereo not given in full) | 9.11 | pIC50 [2]: 7.92; pIC50 [3]: 7.25; pIC50 [4]: 5.90; pIC50 [5]: 7.07
CCOC(=O)C1Cc2nc(-c3ccc4c(c3)OCO4)n(-c3ccnc(N[C@@H]4CCCN(C(=O)C5CC5)C4)n3)c2C1 (stereo not given in full) | 8.92 | –
CCOC(=O)C1Cc2nc(-c3ccc4c(c3)OCO4)n(-c3ccnc(N[C@H]4CCN(C(=O)C5CC5)C4)n3)c2C1 (stereo not given in full) | 6.61 | –
CNC(=O)C1Cc2nc(-c3ccc(F)c(C(F)(F)F)c3)n(-c3ccnc(N[C@H]4CCCN(C(=O)C5CC5)C4)n3)c2C1 (stereo not given in full) | 7.51 | –
CNC(=O)C1Cc2nc(-c3ccc(F)c(C(F)(F)F)c3)n(-c3ccnc(N[C@H]4CCN(C(=O)C5CC5)C4)n3)c2C1 (stereo not given in full) | 6.22 | –
CNC(=O)C1Cc2nc(-c3ccc4ccccc4c3)n(-c3ccnc(N[C@@H]4CCCN(C(=O)C5CC5)C4)n3)c2C1 (stereo not given in full) | 8.97 | pIC50 [2]: 7.79; pIC50 [3]: 7.12; pIC50 [4]: 5.78; pIC50 [5]: 7.43; Ratio IC50 [10]: 50
NC(=O)C1Cc2nc(-c3ccc4ccccc4c3)n(-c3ccnc(N[C@H]4CCCN(C(=O)C5CC5)C4)n3)c2C1 (stereo not given in full) | 8.75 | inhibition [11]: Active; inhibition [12]: Active; viability at 10 µM (Cortical neurone): 58.5%
CCOC(=O)C1Cc2nc(-c3ccc4c(c3)OCO4)n(-c3ccnc(N[C@H]4CCCN(C(=O)C5CC5)C4)n3)c2C1 (stereo not given in full) | 7.98 | –
NC(=O)C1Cc2nc(-c3ccc4c(c3)OCO4)n(-c3ccnc(N[C@@H]4CCCN(C(=O)C5CC5)C4)n3)c2C1 (stereo not given in full) | 7.44 | –
NC(=O)C1Cc2nc(-c3ccc(Cl)c(Cl)c3)n(-c3ccnc(N[C@H]4CCN(C(=O)C5CC5)C4)n3)c2C1 (stereo not given in full) | 7.81 | –

Structure (SMILES) | pIC50 [1] | further results
NC(=O)C1Cc2nc(-c3ccc4ccccc4c3)n(-c3ccnc(N[C@@H]4CCN(C(=O)C5CC5)C4)n3)c2C1 (stereo not given in full) | 7.60 | –
CNC(=O)C1Cc2nc(-c3ccc(F)c(C(F)(F)F)c3)n(-c3ccnc(N[C@@H]4CCN(C(=O)C5CC5)C4)n3)c2C1 (stereo not given in full) | 6.52 | –
CNC(=O)C1Cc2nc(-c3ccc(Cl)c(Cl)c3)n(-c3ccnc(N[C@H]4CCCN(C(=O)C5CC5)C4)n3)c2C1 (stereo not given in full) | 8.92 | pIC50 [2]: 7.81; pIC50 [3]: 7.06; pIC50 [4]: < 5.00; pIC50 [5]: 6.27; Ratio IC50 [10]: 100
NC(=O)C1Cc2nc(-c3ccc4c(c3)CCO4)n(-c3ccnc(N[C@@H]4CCN(C(=O)C5CC5)C4)n3)c2C1 (stereo not given in full) | 7.20 | –
CCOC(=O)C1Cc2nc(-c3ccc(Cl)c(Cl)c3)n(-c3ccnc(N[C@@H]4CCCN(C(=O)C5CC5)C4)n3)c2C1 (stereo not given in full) | 9.22 | pIC50 [2]: 8.07; pIC50 [3]: 7.08; pIC50 [4]: 6.71; pIC50 [5]: 7.27
NC(=O)C1Cc2nc(-c3ccc(F)c(C(F)(F)F)c3)n(-c3ccnc(N[C@H]4CCCN(C(=O)C5CC5)C4)n3)c2C1 (stereo not given in full) | 8.19 | –
CCOC(=O)C1Cc2nc(-c3ccc(Cl)c(Cl)c3)n(-c3ccnc(N[C@@H]4CCN(C(=O)C5CC5)C4)n3)c2C1 (stereo not given in full) | 8.36 | –
CCOC(=O)C1Cc2nc(-c3ccc(Cl)c(Cl)c3)n(-c3ccnc(N[C@H]4CCCN(C(=O)C5CC5)C4)n3)c2C1 (stereo not given in full) | 8.95 | pIC50 [2]: 7.83; pIC50 [3]: 6.80; pIC50 [4]: 5.31; pIC50 [5]: 6.54; viability at 10 µM (Cortical neurone): 63.2%
CNC(=O)C1Cc2nc(-c3ccc4c(c3)OCO4)n(-c3ccnc(N[C@H]4CCN(C(=O)C5CC5)C4)n3)c2C1 (stereo not given in full) | 6.74 | –
NC(=O)C1Cc2nc(-c3ccc4c(c3)CCO4)n(-c3ccnc(N[C@H]4CCCN(C(=O)C5CC5)C4)n3)c2C1 (stereo not given in full) | 8.04 | viability at 10 µM (Cortical neurone): 53%
NC(=O)C1Cc2nc(-c3ccc4ccccc4c3)n(-c3ccnc(N[C@H]4CCN(C(=O)C5CC5)C4)n3)c2C1 (stereo not given in full) | 7.83 | –
NC(=O)C1Cc2nc(-c3ccc(F)c(C(F)(F)F)c3)n(-c3ccnc(N[C@@H]4CCN(C(=O)C5CC5)C4)n3)c2C1 (stereo not given in full) | 6.52 | –
CCOC(=O)C1Cc2nc(-c3ccc4c(c3)CCO4)n(-c3ccnc(N[C@H]4CCCN(C(=O)C5CC5)C4)n3)c2C1 (stereo not given in full) | 7.50 | –
CCOC(=O)C1Cc2nc(-c3ccc4c(c3)OCO4)n(-c3ccnc(N[C@@H]4CCN(C(=O)C5CC5)C4)n3)c2C1 (stereo not given in full) | 7.30 | –
NC(=O)C1Cc2nc(-c3ccc4c(c3)OCO4)n(-c3ccnc(N[C@@H]4CCN(C(=O)C5CC5)C4)n3)c2C1 (stereo not given in full) | 6.99 | –
CCOC(=O)C1Cc2nc(-c3ccc(F)c(C(F)(F)F)c3)n(-c3ccnc(N[C@H]4CCCN(C(=O)C5CC5)C4)n3)c2C1 (stereo not given in full) | 7.28 | –
NC(=O)C1Cc2nc(-c3ccc(F)c(C(F)(F)F)c3)n(-c3ccnc(N[C@H]4CCN(C(=O)C5CC5)C4)n3)c2C1 (stereo not given in full) | 6.74 | –
CNC(=O)C1Cc2nc(-c3ccc4c(c3)OCO4)n(-c3ccnc(N[C@@H]4CCN(C(=O)C5CC5)C4)n3)c2C1 (stereo not given in full) | 7.03 | –
NC(=O)C1Cc2nc(-c3ccc(Cl)c(Cl)c3)n(-c3ccnc(N[C@@H]4CCN(C(=O)C5CC5)C4)n3)c2C1 (stereo not given in full) | 7.79 | –
CCOC(=O)C1Cc2nc(-c3ccc4c(c3)CCO4)n(-c3ccnc(N[C@@H]4CCCN(C(=O)C5CC5)C4)n3)c2C1 (stereo not given in full) | 7.98 | –
NC(=O)C1Cc2nc(-c3ccc4ccccc4c3)n(-c3ccnc(N[C@@H]4CCCN(C(=O)C5CC5)C4)n3)c2C1 (stereo not given in full) | 8.76 | –
CCOC(=O)C1Cc2nc(-c3ccc4ccccc4c3)n(-c3ccnc(N[C@H]4CCN(C(=O)C5CC5)C4)n3)c2C1 (stereo not given in full) | 7.63 | –
CNC(=O)C1Cc2nc(-c3ccc(F)c(C(F)(F)F)c3)n(-c3ccnc(N[C@@H]4CCCN(C(=O)C5CC5)C4)n3)c2C1 (stereo not given in full) | 6.15 | –
CCOC(=O)C1Cc2nc(-c3ccc(F)c(C(F)(F)F)c3)n(-c3ccnc(N[C@@H]4CCN(C(=O)C5CC5)C4)n3)c2C1 (stereo not given in full) | 7.20 | –
